Reference: patent publication US8759392B2, “Amides as inhibitors of human secreted phospholipase A2” (The Regents of the University of California, priority 2008, dated 2014)

Assays:
human GV sPLA2 = target: T1, human GV sPLA2 (Homo sapiens, UniProt P39877); experiment: Mixed micelle-based assay, inhibition of GV sPLA2; type: biochemical; conditions: for Inhibition (% at 0.091 mol fraction) sPLA2 GIIA/GV*: 0.091 mole fraction of inhibitor, average and standard error, n = 3
T1 sequence (P39877 21-138): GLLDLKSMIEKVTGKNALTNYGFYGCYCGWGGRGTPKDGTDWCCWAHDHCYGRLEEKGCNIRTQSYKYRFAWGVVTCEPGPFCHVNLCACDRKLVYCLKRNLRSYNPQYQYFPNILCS
Method: FIG. 2 illustrates inhibition curve for an amide of the present disclosure in a mixed-micelle assay with human GV sPLA2. The amides were tested for inhibition of human GIVA cPLA2, GVIA iPLA2 and GV sPLA2 using previously described mixed micelle-based assays.

human GIVA cPLA2 = target: T2, human GIVA cPLA2 (Homo sapiens, UniProt P47712); experiment: Mixed micelle-based assay, inhibition of GIVA cPLA2; type: biochemical
T2 sequence (P47712 1-749): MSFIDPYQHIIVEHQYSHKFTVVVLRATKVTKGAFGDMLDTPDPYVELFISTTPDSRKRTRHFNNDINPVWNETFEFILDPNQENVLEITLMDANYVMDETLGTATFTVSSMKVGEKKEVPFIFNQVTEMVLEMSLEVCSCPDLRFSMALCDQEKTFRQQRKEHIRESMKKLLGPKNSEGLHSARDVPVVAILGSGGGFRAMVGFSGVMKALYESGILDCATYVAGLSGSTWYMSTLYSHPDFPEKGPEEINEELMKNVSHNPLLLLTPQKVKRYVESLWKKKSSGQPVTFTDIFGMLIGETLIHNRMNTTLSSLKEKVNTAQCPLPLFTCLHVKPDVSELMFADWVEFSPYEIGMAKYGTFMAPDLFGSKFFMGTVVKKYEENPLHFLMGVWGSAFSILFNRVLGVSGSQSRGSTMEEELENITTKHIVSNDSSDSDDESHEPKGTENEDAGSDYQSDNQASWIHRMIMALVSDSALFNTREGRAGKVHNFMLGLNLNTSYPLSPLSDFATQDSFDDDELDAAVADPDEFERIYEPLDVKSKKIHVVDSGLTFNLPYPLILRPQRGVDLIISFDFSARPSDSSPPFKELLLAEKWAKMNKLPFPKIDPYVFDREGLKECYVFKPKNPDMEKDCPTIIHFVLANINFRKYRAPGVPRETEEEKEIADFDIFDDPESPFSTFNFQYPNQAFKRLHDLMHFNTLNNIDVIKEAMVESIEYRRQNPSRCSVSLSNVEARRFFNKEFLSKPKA
Method: (§1) The amides were tested for inhibition of human GIVA cPLA2, GVIA iPLA2 and GV sPLA2 using previously described mixed micelle-based assays. The resulting degrees of inhibition are presented as either percent inhibition or XI(50) values. […] The XI(50) is the mole fraction of the inhibitor in the total substrate interface required to inhibit the enzyme by 50%.

human GVIA iPLA2 = target: T3, human GVIA iPLA2 (Homo sapiens, UniProt O60733); experiment: Mixed micelle-based assay, inhibition of GVIA iPLA2; type: biochemical
T3 sequence (O60733 1-806): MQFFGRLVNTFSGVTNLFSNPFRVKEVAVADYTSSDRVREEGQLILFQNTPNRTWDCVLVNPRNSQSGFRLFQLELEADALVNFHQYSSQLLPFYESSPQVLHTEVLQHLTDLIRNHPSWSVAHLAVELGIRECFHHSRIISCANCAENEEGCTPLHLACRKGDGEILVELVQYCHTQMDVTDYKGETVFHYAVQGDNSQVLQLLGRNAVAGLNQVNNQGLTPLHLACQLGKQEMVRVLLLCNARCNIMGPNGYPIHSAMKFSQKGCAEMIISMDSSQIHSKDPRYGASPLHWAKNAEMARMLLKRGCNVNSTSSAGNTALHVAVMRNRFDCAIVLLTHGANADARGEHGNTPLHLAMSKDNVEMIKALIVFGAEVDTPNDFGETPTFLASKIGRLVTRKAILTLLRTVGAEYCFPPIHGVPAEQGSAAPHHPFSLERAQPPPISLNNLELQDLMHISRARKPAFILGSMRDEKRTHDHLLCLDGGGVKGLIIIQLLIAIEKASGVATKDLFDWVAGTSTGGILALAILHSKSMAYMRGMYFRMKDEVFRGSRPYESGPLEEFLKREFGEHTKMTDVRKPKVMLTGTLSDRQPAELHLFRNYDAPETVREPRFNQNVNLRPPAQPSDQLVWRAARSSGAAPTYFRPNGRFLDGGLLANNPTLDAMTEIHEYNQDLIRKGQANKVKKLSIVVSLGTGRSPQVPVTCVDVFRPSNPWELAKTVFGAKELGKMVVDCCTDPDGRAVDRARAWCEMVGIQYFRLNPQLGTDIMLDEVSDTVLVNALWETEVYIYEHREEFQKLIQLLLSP
Method: as §1

spinal cord injury (SCI) = experiment: Spinal cord injury (SCI) in mice
secreted PLA2 = conditions: known inhibitors of FIG. 1; cited from earlier work
[1] = 0.091 mole fraction of inhibitor, average and standard error, n = 3

Activity on GV sPLA2 (in words) (human GV sPLA2) | XI(50) GV sPLA2 (human GV sPLA2; mole fraction of inhibitor in total substrate interface for 50% inhibition, non-linear regression (hyperbolic)) [mole fraction] | Activity on GIVA cPLA2 (in words) (human GIVA cPLA2) | Activity on GVIA iPLA2 (in words) (human GVIA iPLA2) | Structure (SMILES) | Inhibition (% at 0.091 mol fraction) sPLA2 GIIA/GV* (human GV sPLA2) [%] | Myelin sparing (luxol fast blue) (spinal cord injury (SCI); 28 days after SCI, […]) | Locomotor function, 9-point Basso Mouse Scale (BMS) score (spinal cord injury (SCI); administration started 1 hour after SCI, vs vehicle treated mice, significant from day 5 dpi through the follow up) | Inhibition (% at 0.091 mol fraction) cPLA2 GIVA (human GIVA cPLA2; [1]) | Inhibition (% at 0.091 mol fraction) iPLA2 GVIA (human GVIA iPLA2; [1]) [%] | XI(50) iPLA2 GVIA (human GVIA iPLA2; mole fraction of inhibitor in total substrate interface required to inhibit the enzyme by 50%) [mole fraction] | Inhibition of secreted PLA2 (in words) (secreted PLA2)
potent and selective GV sPLA2 inhibitor | 0.003±0.0004 | not affecting at all | not affecting at all | CCCC[C@H](CCC(=O)O)NC(=O)CCCCCCc1ccccc1 [Compound 9, (R)-4-(7-phenylheptanamido)octanoic acid] | > 95 | significant myelin sparing | improved locomotor function | – | – | – | –
– | – | – | – | O=C(CCCCc1ccccc1)C(F)(F)C(F)(F)F [FKGK11, reference compound] | 28 ± 1 | – | – | N.D. (N.D. signifies compounds with less than 25% inhibition (or no detectable inhibition)) | > 95 | 0.0096 ± 0.0008 | –
– | – | – | – | CCC[C@H](CCC(=O)O)NC(=O)CCCCCCc1ccccc1 [Compound 2] | – | – | – | – | – | – | potent inhibitor
